According to PubChem BioAssay AID248 (DTP/NCI, 2004):
Several values for one entry are separate records, joined by “and”; a condition that tells them apart may be missing. Identical values can stand only once. Inconclusive results and toxic doses are left out.

Tested on: L1210 leukemia ip in BDF1 mice, survival T/C
Experiment: NCI In Vivo Anticancer Drug Screen. Data for tumor model L1210 Leukemia (intraperitoneal) in B6D2F1 (BDF1) mice
Conditions: endpoint: mean survival time, higher = longer survival
In short: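 Value reflects the ratio of survival in compound-treated mice to survival in vehicle-treated controls, with both groups carrying the same transplanted tumor.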

[1] = dose: 100.0 mg/kg/injection, schedule: Q04DX002 (ip), vehicle: Klucel (hydroxypropylcellulose) (HPC)
[2] = dose: 200.0 mg/kg/injection, schedule: Q04DX002 (ip), vehicle: Klucel (hydroxypropylcellulose) (HPC)
[3] = dose: 400.0 mg/kg/injection, schedule: Q04DX002 (ip), vehicle: Klucel (hydroxypropylcellulose) (HPC)
[4] = dose: 50.0 mg/kg/injection, schedule: Q01DX009 (ip), vehicle: saline with Tween-80
[5] = dose: 100.0 mg/kg/injection, schedule: Q01DX009 (ip), vehicle: Klucel (hydroxypropylcellulose) (HPC)
[6] = dose: 200.0 mg/kg/injection, schedule: Q01DX009 (ip), vehicle: Klucel (hydroxypropylcellulose) (HPC)
[7] = dose: 100.0 mg/kg/injection, schedule: Q01DX001 (ip), vehicle: Klucel (hydroxypropylcellulose) (HPC)
[8] = dose: 200.0 mg/kg/injection, schedule: Q01DX001 (ip), vehicle: Klucel (hydroxypropylcellulose) (HPC)
[9] = dose: 400.0 mg/kg/injection, schedule: Q01DX001 (ip), vehicle: Klucel (hydroxypropylcellulose) (HPC)
[10] = dose: 400.0 mg/kg/injection, schedule: Q01DX009 (ip), vehicle: Klucel (hydroxypropylcellulose) (HPC)
[11] = dose: 25.0 mg/kg/injection, schedule: Q01DX009 (ip), vehicle: Klucel (hydroxypropylcellulose) (HPC)
[12] = dose: 50.0 mg/kg/injection, schedule: Q01DX009 (ip), vehicle: Klucel (hydroxypropylcellulose) (HPC)
[13] = dose: 100.0 mg/kg/injection, schedule: Q01DX009 (ip), vehicle: saline with Tween-80
[14] = dose: 200.0 mg/kg/injection, schedule: Q01DX009 (ip), vehicle: saline with Tween-80
[15] = dose: 400.0 mg/kg/injection, schedule: Q01DX009 (ip), vehicle: saline with Tween-80
[16] = dose: 100.0 mg/kg/injection, schedule: Q04DX003 (ip), vehicle: saline with Tween-80
[17] = dose: 200.0 mg/kg/injection, schedule: Q04DX003 (ip), vehicle: saline with Tween-80
[18] = dose: 400.0 mg/kg/injection, schedule: Q04DX003 (ip), vehicle: saline with Tween-80
[19] = dose: 100.0 mg/kg/injection, schedule: Q04DX003 (ip), vehicle: Klucel (hydroxypropylcellulose) (HPC)
[20] = dose: 200.0 mg/kg/injection, schedule: Q04DX003 (ip), vehicle: Klucel (hydroxypropylcellulose) (HPC)
[21] = dose: 400.0 mg/kg/injection, schedule: Q04DX003 (ip), vehicle: Klucel (hydroxypropylcellulose) (HPC)

In the case of `COc1ccc(Cl)c(C(=O)O)c1`, the T/C [1] is reported as 114 % of control, the T/C [2] is reported as 114 % of control and the T/C [3] is reported as 103 % of control.
`Cc1cc(=O)[nH]c(N/N=C/c2cc(Cl)ccc2O)n1` was tested, and the T/C [4] was 87 % of control.
`C[C@]12CC[C@@H]3c4ccc(O)c([N+](=O)[O-])c4CC[C@H]3[C@@H]1CCC2=O` was tested, and the T/C [5] was 97 % of control and the T/C [6] was 92 % of control.
For `CN(C)/N=C(\Cc1ccccc1)c1ccccc1`, the T/C [7] was 99 % of control, the T/C [8] was 99 % of control and the T/C [9] was 98 % of control.
`ClCC/C=C\C=C\CCCl` was tested, and the T/C (dose: 75.0 mg/kg/injection, schedule: Q01DX001 (ip), vehicle: saline) was 93 % of control, the T/C (dose: 75.0 mg/kg/injection, schedule: Q04DX003 (ip), vehicle: saline) was 107 % of control and the T/C (dose: 150.0 mg/kg/injection, schedule: Q01DX001 (ip), vehicle: saline) was 105 % of control. For the same compound, the T/C (dose: 150.0 mg/kg/injection, schedule: Q04DX003 (ip), vehicle: saline) was 111 % of control, the T/C (dose: 300.0 mg/kg/injection, schedule: Q01DX001 (ip), vehicle: saline) was 93 % of control and the T/C (dose: 300.0 mg/kg/injection, schedule: Q04DX003 (ip), vehicle: saline) was 107 % of control.
In the case of `S=C1SCN(CCc2ccccc2)CN1CCc1ccccc1`, the T/C (dose: 100.0 mg/kg/injection, schedule: Q04DX002 (ip), vehicle: gum acacia) is reported as 92 % of control, the T/C (dose: 200.0 mg/kg/injection, schedule: Q04DX002 (ip), vehicle: gum acacia) is reported as 98 % of control and the T/C (dose: 400.0 mg/kg/injection, schedule: Q04DX002 (ip), vehicle: gum acacia) is reported as 92 % of control.
For `Cc1ccc(C)c(NC(=O)c2ccc(C(=O)O)cc2C(=O)O)c1`, the T/C [5] was 95 % of control, the T/C [1] was 98 % of control and the T/C [6] was 100 % of control. The T/C [2] was 98 % of control, the T/C [10] was 97 % of control and the T/C [3] was 95 % of control.
For `Cc1cc(=O)oc2c(OS(C)(=O)=O)c(OS(C)(=O)=O)ccc12`, the T/C (dose: 6.25 mg/kg/injection, schedule: Q01DX009 (ip), vehicle: Klucel (hydroxypropylcellulose) (HPC)) was 100 % of control, the T/C (dose: 12.5 mg/kg/injection, schedule: Q01DX009 (ip), vehicle: Klucel (hydroxypropylcellulose) (HPC)) was 100 % of control and the T/C [11] was 96 % of control and 100 % of control. For the same compound, the T/C [12] was 94 % of control and 88 % of control, the T/C [5] was 97 % of control and the T/C [6] was 105 % of control.
For `O=C(O)c1c(Br)c(Br)c(Br)c(Br)c1C(=O)Nc1ccccc1C(F)(F)F`, the T/C [5] was 101 % of control and the T/C [6] was 93 % of control.
`Cc1ccc(Cl)cc1NC(=O)c1ccc([N+](=O)[O-])cc1` was tested, and the T/C [4] was 91 % of control and the T/C [13] was 86 % of control.
In the case of `CC12CC(=O)OC1(C)C1CCC2C1` (stereo not given), the T/C (dose: 6.25 mg/kg/injection, schedule: Q01DX009 (ip), vehicle: acetone) is reported as 111 % of control, the T/C (dose: 6.25 mg/kg/injection, schedule: Q04DX003 (ip), vehicle: acetone) is reported as 101 % of control and the T/C (dose: 12.5 mg/kg/injection, schedule: Q01DX001 (ip), vehicle: acetone) is reported as 96 % of control. The T/C (dose: 12.5 mg/kg/injection, schedule: Q01DX009 (ip), vehicle: acetone) was 92 % of control, the T/C (dose: 12.5 mg/kg/injection, schedule: Q04DX003 (ip), vehicle: acetone) was 101 % of control and the T/C (dose: 25.0 mg/kg/injection, schedule: Q01DX001 (ip), vehicle: acetone) was 112 % of control. For the same compound, the T/C (dose: 25.0 mg/kg/injection, schedule: Q04DX003 (ip), vehicle: acetone) was 97 % of control.
`O=C(Nc1cc2c(cc1Br)OCO2)C(Cl)Cl` was tested, and the T/C [13] was 95 % of control, the T/C [14] was 120 % of control and the T/C [15] was 92 % of control.
In the case of `NC(CC(=O)O)c1nn[nH]n1` (stereo not given), the T/C [13] is reported as 102 % of control, the T/C [16] is reported as 105 % of control and the T/C [14] is reported as 98 % of control. For the same compound, the T/C [17] was 102 % of control and the T/C [18] was 103 % of control.
With `Cc1cc(C2=CCCCC2)c2ccccc2c1C` the T/C [7] was 95 % of control, the T/C [8] was 103 % of control and the T/C [9] was 95 % of control.
`O=NN(CCCl)C(=O)NC1CCC(CC2CCC(NC(=O)N(CCCl)N=O)CC2)CC1` (stereo not given) was tested, and the T/C (dose: 6.0 mg/kg/injection, schedule: Q01DX001 (ip), vehicle: gum acacia) was 105 % of control, the T/C (dose: 12.0 mg/kg/injection, schedule: Q01DX001 (ip), vehicle: gum acacia) was 151 % of control and the T/C (dose: 46.0 mg/kg/injection, schedule: Q01DX001 (ip), vehicle: gum acacia) was 184 % of control. For the same compound, the T/C (dose: 93.0 mg/kg/injection, schedule: Q01DX001 (ip), vehicle: gum acacia) was 298 % of control, the T/C (dose: 187.0 mg/kg/injection, schedule: Q01DX001 (ip), vehicle: gum acacia) was 315 % of control and the T/C (dose: 250.0 mg/kg/injection, schedule: Q01DX001 (ip), vehicle: gum acacia) was 318 % of control. For the same compound, the T/C (dose: 375.0 mg/kg/injection, schedule: Q01DX001 (ip), vehicle: gum acacia) was 245 % of control.
In the case of `Cc1ccc(NC(=O)OCCOc2c(C(C)C)cccc2C(C)C)c([N+](=O)[O-])c1`, the T/C [1] is reported as 94 % of control, the T/C [2] is reported as 96 % of control and the T/C [3] is reported as 92 % of control.
For `O=C1O/C(=C\c2ccccc2)C(O)=C1c1ccccc1`, the T/C (dose: 100.0 mg/kg/injection, schedule: Q01DX001 (ip), vehicle: saline with Tween-80) was 100 % of control.
In the case of `CNC(=S)N/N=C/c1ccc2c(c1)CCC2`, the T/C [19] is reported as 100 % of control, the T/C [20] is reported as 100 % of control and the T/C [21] is reported as 91 % of control.
With `OCCC/C=C/CCI` the T/C [5] was 93 % of control, the T/C [19] was 112 % of control and the T/C [6] was 90 % of control. For the same compound, the T/C [20] was 109 % of control, the T/C [10] was 98 % of control and the T/C [21] was 91 % of control.
For `CC1CN(CC2CCCCCCCCCCC2=O)CC(C)O1` (stereo not given), the T/C [1] was 116 % of control and the T/C [2] was 90 % of control.
With `NC1CCCCC1I` (stereo not given) the T/C (dose: 75.0 mg/kg/injection, schedule: Q01DX001 (ip), vehicle: acetone) was 94 % of control and the T/C (dose: 150.0 mg/kg/injection, schedule: Q01DX001 (ip), vehicle: acetone) was 104 % of control.
`COc1ccc(-c2cc(=O)c3c(O)cc(O)c(-c4cc(-c5cc(=O)c6c(O)cc(OC)cc6o5)ccc4OC)c3o2)cc1` was tested, and the T/C (dose: 55.0 mg/kg/injection, schedule: Q01DX Z (ip), vehicle: methylcellulose (MC)) was 98 % of control, the T/C (dose: 83.0 mg/kg/injection, schedule: Q01DX Z (ip), vehicle: methylcellulose (MC)) was 92 % of control and the T/C (dose: 125.0 mg/kg/injection, schedule: Q01DX Z (ip), vehicle: methylcellulose (MC)) was 93 % of control.
In the case of `COc1cc(/C=N\N=C\c2ccc(F)cc2)cc(OC)c1OC`, the T/C [5] is reported as 93 % of control, the T/C [6] is reported as 93 % of control and the T/C [10] is reported as 88 % of control.
`c1ccc(CNc2ncnc3c2ncn3Cc2ccccc2)cc1` was tested, and the T/C [7] was 94 % of control, the T/C [8] was 104 % of control and the T/C [9] was 98 % of control.
In the case of `CN(C)/N=N\N(C)C`, the T/C [11] is reported as 98 % of control, the T/C [12] is reported as 103 % of control and the T/C [5] is reported as 101 % of control.
For `CC(Cc1ccccc1)N(C)N` (stereo not given), the T/C (dose: 1.56 mg/kg/injection, schedule: Q01DX009 (ip), vehicle: saline) was 94 % of control, the T/C (dose: 3.12 mg/kg/injection, schedule: Q01DX009 (ip), vehicle: saline) was 102 % of control and the T/C (dose: 6.25 mg/kg/injection, schedule: Q01DX009 (ip), vehicle: saline) was 91 % of control. The T/C (dose: 12.5 mg/kg/injection, schedule: Q01DX009 (ip), vehicle: saline) was 88 % of control and the T/C (dose: 25.0 mg/kg/injection, schedule: Q01DX009 (ip), vehicle: saline) was 102 % of control.
With `CCCCOC(=O)c1cocc1C(=O)OCCCC` the T/C [13] was 99 % of control, the T/C [16] was 98 % of control and the T/C [14] was 92 % of control. For the same compound, the T/C [17] was 104 % of control, the T/C [15] was 90 % of control and the T/C [18] was 93 % of control.
In the case of `CCCCCCCCC(C)NCCOC(=O)c1ccc([N+](=O)[O-])cc1` (stereo not given), the T/C (dose: 75.0 mg/kg/injection, schedule: Q01DX001 (ip), vehicle: other) is reported as 89 % of control and the T/C (dose: 150.0 mg/kg/injection, schedule: Q01DX001 (ip), vehicle: other) is reported as 89 % of control.
`COc1ccc(OC)c(CCN)c1` was tested, and the T/C (dose: 25.0 mg/kg/injection, schedule: Q01DX009 (ip), vehicle: saline with Tween-80) was 98 % of control, the T/C [4] was 105 % of control and the T/C [13] was 104 % of control. The T/C (dose: 100.0 mg/kg/injection, schedule: Q04DX003 (ip), vehicle: saline) was 107 % of control.
